These are literature values, as cited in patent US20090099252A1, “NOVEL L[…] AS THERAPEUTIC AGENTS” (priority 2007, published 2009).

The subject of the series is multi-drug resistant cell line SKVLB-1. As to conditions: background statement.

For the compound `C=C1C[C@H](C)C[C@@H]2CC=C[C@@H](C/C=C\C(=O)O[C@H]([C@@H](O)/C=C/[C@@H]3CC(C)=CCO3)C[C@@H]3O[C@H]3[C@@H](O)C1)O2` [Laulimalide, laulimalide], the IC50 (commonly the concentration that inhibits the measured activity by half) was 1.2 µM.
